These results are taken from US20080021026A1, “BENZOTHIOPHENE INHIBITORS OF RHO KINASE” (priority 2006, published 2008).

The target of this experiment is T1, recombinant N-terminal GST-tagged human Rho kinase 2 (ROCK2, amino acids 1-552) (Homo sapiens, UniProt O75116).
T1 construct: ROCK2, amino acids 1-552; purchased Invitrogen Inc. PV3759
T1 sequence (O75116 1-552): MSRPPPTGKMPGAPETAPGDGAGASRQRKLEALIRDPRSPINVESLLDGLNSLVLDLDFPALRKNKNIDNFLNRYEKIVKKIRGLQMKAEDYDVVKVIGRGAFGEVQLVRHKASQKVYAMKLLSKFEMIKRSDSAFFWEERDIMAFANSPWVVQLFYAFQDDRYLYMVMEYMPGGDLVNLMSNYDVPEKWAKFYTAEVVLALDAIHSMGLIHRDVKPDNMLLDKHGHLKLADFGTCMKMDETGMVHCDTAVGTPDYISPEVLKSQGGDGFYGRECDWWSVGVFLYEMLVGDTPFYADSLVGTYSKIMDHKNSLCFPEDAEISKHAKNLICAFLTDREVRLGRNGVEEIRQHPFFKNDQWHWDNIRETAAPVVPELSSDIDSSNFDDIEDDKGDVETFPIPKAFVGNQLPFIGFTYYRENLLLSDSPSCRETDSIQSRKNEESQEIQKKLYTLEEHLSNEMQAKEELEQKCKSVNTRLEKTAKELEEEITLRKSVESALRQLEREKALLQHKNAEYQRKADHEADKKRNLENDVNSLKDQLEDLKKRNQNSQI
Briefly: In vitro Rho kinase assay (luciferase-based ATP consumption), ROCK2. The experiment is classed as biochemical. As to conditions: recombinant GST-tagged human ROCK2, luciferase-based ATP consumption; read-out: ROCK2 IC50. As for the experimental part:
In Vitro Rho Kinase Assay
Rho kinase biochemical assays described below depend on firefly luciferase-based, indirect measurement of total ATP consumption by the kinase following incubation with substrate and ATP. 25 μl of Rho kinase assay buffer (20 mM Tris-HCL [pH 7.5], 1 mM MgCl2, 0.4 mM CaCl2, 0.15 mM EGTA, 0.1 mg/ml bovine serum albumin) containing 0.82 μg/ml of recombinant N-terminal GST-tagged human Rho kinase 1 (ROCK1, amino acids 1-535, Invitrogen Inc., cat. #PV-3691) or recombinant N-terminal GST-tagged human Rho kinase 2 (ROCK2, amino acids 1-552, Invitrogen Inc., cat #PV3759), 100 μg/ml S6 peptide substrate (related to amino acids 218-249 of the human 40S ribosomal protein S6, and suitable for ROCK1 or ROCK2, e.g. Upstate/Millipore Inc., cat #12-420), and 3 µM ATP are dispensed to wells of a 384 multi-well opaque plate. The plate is centrifuged for 30 seconds at approximately 200×g. 240 nl of test compound in DMSO is dispensed to each well by passive pin transfer. The lag phase of this in vitro kinase reaction permits addition of compounds soon after the reaction initiates. The reaction is allowed to incubate at 30° C. for 2 hours. The assay plates are sealed and maintained in a humidified environment. After 2 hours, 25 μl of easylite protein kinase assay reagent (Perkin-Elmer, Inc.) is dispensed. After an additional 10 minute incubation at room temperature (about 22° C.), luminescence activity is measured on a Molecular Devices Analyst multi-mode plate reader or other suitable plate reader. Kinase inhibition results in less ATP consumption, and therefore increased luminescence signal. Negative control activity is measured with DMSO lacking any test compound. The positive control is 2-methyl-1-(4-methylisoquinolin-5-ylsulfonyl)perhydro-1,4-diazepine hydrochloride (aka H-1152P, HCl salt). Efficacy is measured as a percentage of positive control activity. […] In some cases, kinase reactions and compound testing are performed in 1536 multi-well plates under similar conditions, with assay volumes appropriately scaled. The designation NT means the cited example was not tested.
As for `Cc1c(-c2ccnc(N)n2)sc2ccc(C(=O)NCCN3CCCCC3)cc12` [Example 387, Cc1c(sc2ccc(cc12)C(═O)NCCN3CCCCC3)-c4ccnc(N)n4], the IC50 (in general, the concentration needed to halve the response being measured) is less than 5 µM.

Take `COc1ccc(N2CCN(C(=O)c3ccc4sc(-c5ccnc(N)n5)c(C)c4c3)CC2)cc1OC` [Example 570, COc1ccc(cc1OC)N2CCN(CC2)C(═O)c3ccc4sc(c(C)c4c3)-c5ccnc(N)n5]: the IC50 was greater than 5 µM.

Consider `Cc1ccc(Cl)cc1N1CCN(C(=O)c2ccc3sc(-c4ccnc(N)n4)c(C)c3c2)CC1` [Example 554, Cc1ccc(Cl)cc1N2CCN(CC2)C(═O)c3ccc4sc(c(C)c4c3)-c5ccnc(N)n5], for which the IC50 was less than 5 µM.

With `Cc1c(-c2ccnc(N)n2)sc2ccc(C(=O)NCc3ccc(C(F)(F)F)cc3)cc12` [Example 444, Cc1c(sc2ccc(cc12)C(═O)NCc3ccc(cc3)C(F)(F)F)-c4ccnc(N)n4], the IC50 is greater than 5 µM.

For the compound `Cc1c(-c2ccnc(N)n2)sc2ccc(C(=O)NCCCn3ccnc3)cc12` [Example 385, Cc1c(sc2ccc(cc12)C(═O)NCCCn3ccnc3)-c4ccnc(N)n4], the IC50 is less than 5 µM.

Turning to `Cc1c(-c2ccnc(N)n2)sc2ccc(C(=O)NC3CC3)cc12` [Example 333, Cc1c(sc2ccc(cc12)C(═O)NC3CC3)-c4ccnc(N)n4], the IC50 is less than 5 µM.

As for `Cc1c(-c2ccnc(N)n2)sc2ccc(C(=O)N(C)CC(O)c3ccccc3)cc12` (stereo not shown) [Example 507, CN(CC(O)c1ccccc1)C(═O)c2ccc3sc(c(C)c3c2)-c4ccnc(N)n4], the IC50 is less than 5 µM.

Regarding `CC(=O)c1ccc(N2CCN(C(=O)c3ccc4sc(-c5ccnc(N)n5)c(C)c4c3)CC2)cc1` [Example 550, CC(═O)c1ccc(cc1)N2CCN(CC2)C(═O)c3ccc4sc(c(C)c4c3)-c5ccnc(N)n5], the IC50 is greater than 5 µM.

Take `Cc1c(-c2ccnc(N)n2)sc2ccc(C(=O)N(CCCO)Cc3ccccn3)cc12` [Example 517, Cc1c(sc2ccc(cc12)C(═O)N(CCCO)Cc3ccccn3)-c4ccnc(N)n4]: the IC50 was less than 5 µM.

Consider `Cc1c(-c2ccnc(N)n2)sc2ccc(C(=O)NCCCCO)cc12` [Example 354, Cc1c(sc2ccc(cc12)C(═O)NCCCCO)-c3ccnc(N)n3], for which the half-inhibitory concentration (IC50) was less than 5 µM.

On to `Cc1c(-c2ccnc(N)n2)sc2ccc(C(=O)N(CCC#N)Cc3ccccc3)cc12` [Example 433, Cc1c(sc2ccc(cc12)C(═O)N(CCC#N)Cc3ccccc3)-c4ccnc(N)n4], for which the IC50 is less than 5 µM.

With `Cc1c(-c2ccnc(N)n2)sc2ccc(C(=O)NCc3ccccc3F)cc12` [Example 384, Cc1c(sc2ccc(cc12)C(═O)NCc3ccccc3F)-c4ccnc(N)n4], the IC50 is less than 5 µM.

Regarding `Cc1c(-c2ccnc(N)n2)sc2ccc(C(=O)NCCC(C)(C)C)cc12` [Example 358, Cc1c(sc2ccc(cc12)C(═O)NCCC(C)(C)C)-c3ccnc(N)n3], the IC50 was less than 5 µM.

`Cc1c(-c2ccnc(N)n2)sc2ccc(C(=O)N(CCO)[C@H](C)c3ccccc3)cc12` [Example 516, C[C@@H](N(CCO)C(═O)c1ccc2sc(c(C)c2c1)-c3ccnc(N)n3)c4ccccc4]: the IC50 is less than 5 µM.

Turning to `Cc1c(-c2ccnc(N)n2)sc2ccc(C(=O)N3CCC(C(N)=O)CC3)cc12` [Example 494, Cc1c(sc2ccc(cc12)C(═O)N3CCC(CC3)C(N)═O)-c4ccnc(N)n4], the IC50 was greater than 5 µM.

For the compound `Cc1c(-c2ccnc(N)n2)sc2ccc(C(=O)N3CCCC(c4ccc(C(F)(F)F)cc4)C3)cc12` (stereo not shown) [Example 571, Cc1c(sc2ccc(cc12)C(═O)N3CCCC(C3)c4ccc(cc4)C(F)(F)F)-c5ccnc(N)n5], the IC50 is greater than 5 µM.

As to `CCOC(=O)N1CCC(NC(=O)c2ccc3sc(-c4ccnc(N)n4)c(C)c3c2)CC1` [Example 442, CCOC(═O)N1CCC(CC1)NC(═O)c2ccc3sc(c(C)c3c2)-c4ccnc(N)n4], the IC50 is less than 5 µM.

With `Cc1c(-c2ccnc(N)n2)sc2ccc(Oc3cccc(O)c3)cc12` [Example 82, 3-(2-(2-Aminopyrimidin-4-yl)-3-methylbenzo[b]thiophen-5-yloxy)phenol], the IC50 was less than 5 µM.

With `Cc1c(-c2ccnc(N)n2)sc2ccc(C(=O)NCCc3cccc(Cl)c3)cc12` [Example 429, Cc1c(sc2ccc(cc12)C(═O)NCCc3cccc(Cl)c3)-c4ccnc(N)n4], the IC50 was less than 5 µM.

Turning to `Cc1c(-c2ccnc(N)n2)sc2ccc(C(=O)NC3CCCCCC3)cc12` [Example 370, Cc1c(sc2ccc(cc12)C(═O)NC3CCCCCC3)-c4ccnc(N)n4], the IC50 is greater than 5 µM.

As for `Cc1c(-c2ccnc(N)n2)sc2ccc(C(=O)NCc3ccco3)cc12` [Example 355, Cc1c(sc2ccc(cc12)C(═O)NCc3ccco3)-c4ccnc(N)n4], the IC50 was less than 5 µM.

Turning to `Cc1c(-c2ccnc(N)n2)sc2ccc(C(=O)NC(C)CCc3ccccc3)cc12` (stereo not shown) [Example 418, CC(CCc1ccccc1)NC(═O)c2ccc3sc(c(C)c3c2)-c4ccnc(N)n4], the IC50 was greater than 5 µM.

Consider `Cc1c(-c2ccnc(N)n2)sc2ccc(C(=O)N(C)CCc3ccccn3)cc12` [Example 501, CN(CCc1ccccn1)C(═O)c2ccc3sc(c(C)c3c2)-c4ccnc(N)n4], for which the concentration for half-maximal inhibition (IC50) was greater than 5 µM.

As to `COCCNC(=O)c1ccc2sc(-c3ccnc(N)n3)c(C)c2c1` [Example 345, COCCNC(═O)c1ccc2sc(c(C)c2c1)-c3ccnc(N)n3], the IC50 was less than 5 µM.

For `Cc1c(-c2ccnc(N)n2)sc2ccc(C(=O)NC3CCCCC3)cc12` [Example 356, Cc1c(sc2ccc(cc12)C(═O)NC3CCCCC3)-c4ccnc(N)n4], the IC50 is greater than 5 µM.

As for `Cc1c(-c2ccnc(N)n2)sc2ccc(C(=O)N3CCC(NC(=O)OC(C)(C)C)C3)cc12` (stereo not shown) [Example 531, Cc1c(sc2ccc(cc12)C(═O)N3CCC(C3)NC(═O)OC(C)(C)C)-c4ccnc(N)n4], the IC50 is less than 5 µM.

As to `CCCCN(C)C(=O)c1ccc2sc(-c3ccnc(N)n3)c(C)c2c1` [Example 469, CCCCN(C)C(═O)c1ccc2sc(c(C)c2c1)-c3ccnc(N)n3], the IC50 is less than 5 µM.

On to `Cc1c(-c2ccnc(N)n2)sc2ccc(C(=O)N3CCN(c4ccc(Cl)cc4)CC3)cc12` [Example 545, Cc1c(sc2ccc(cc12)C(═O)N3CCN(CC3)c4ccc(Cl)cc4)-c5ccnc(N)n5], for which the IC50 is greater than 5 µM.

`CCOC(=O)CC1C(=O)NCCN1C(=O)c1ccc2sc(-c3ccnc(N)n3)c(C)c2c1` (stereo not shown) [Example 529, CCOC(═O)CC1N(CCNC1═O)C(═O)c2ccc3sc(c(C)c3c2)-c4ccnc(N)n4]: the IC50 is less than 5 µM.

For `Cc1c(-c2ccnc(N)n2)sc2ccc(C(=O)NCc3cccc(F)c3)cc12` [Example 382, Cc1c(sc2ccc(cc12)C(═O)NCc3cccc(F)c3)-c4ccnc(N)n4], the IC50 was less than 5 µM.

Consider `Cc1c(-c2ccnc(N)n2)sc2ccc(C(=O)NCCC(C)C)cc12` [Example 350, CC(C)CCNC(═O)c1ccc2sc(c(C)c2c1)-c3ccnc(N)n3], for which the IC50 is less than 5 µM.

For `Cc1c(-c2ccnc(N)n2)sc2ccc(C(=O)N(C)C(Cc3ccccc3)c3ccccc3)cc12` (stereo not shown) [Example 557, CN(C(Cc1ccccc1)c2ccccc2)C(═O)c3ccc4sc(c(C)c4c3)-c5ccnc(N)n5], the IC50 was greater than 5 µM.

For the compound `Cc1c(-c2ccnc(N)n2)sc2ccc(C(=O)N3CCN(c4ccccn4)CC3)cc12` [Example 514, Cc1c(sc2ccc(cc12)C(═O)N3CCN(CC3)c4ccccn4)-c5ccnc(N)n5], the IC50 was greater than 5 µM.

On to `CCCCN(Cc1ccccc1)C(=O)c1ccc2sc(-c3ccnc(N)n3)c(C)c2c1` [Example 515, CCCCN(Cc1ccccc1)C(═O)c2ccc3sc(c(C)c3c2)-c4ccnc(N)n4], for which the IC50 is greater than 5 µM.

In the case of `COc1cccc(CCNC(=O)c2ccc3sc(-c4ccnc(N)n4)c(C)c3c2)c1` [Example 421, COc1cccc(CCNC(═O)c2ccc3sc(c(C)c3c2)-c4ccnc(N)n4)c1], the IC50 is less than 5 µM.

For `Cc1c(-c2ccnc(N)n2)sc2ccc(C(=O)NCCc3ccc4c(c3)OCO4)cc12` [Example 456, Cc1c(sc2ccc(cc12)C(═O)NCCc3ccc4OCOc4c3)-c5ccnc(N)n5], the IC50 is less than 5 µM.

Take `Cc1c(-c2ccnc(N)n2)sc2ccc(C(=O)N3CCN(c4ccccc4C#N)CC3)cc12` [Example 532, Cc1c(sc2ccc(cc12)C(═O)N3CCN(CC3)c4ccccc4C#N)-c5ccnc(N)n5]: the IC50 was greater than 5 µM.

On to `Cc1c(-c2ccnc(N)n2)sc2ccc(C(=O)N3CCN(C)CC3)cc12` [Example 474, CN1CCN(CC1)C(═O)c2ccc3sc(c(C)c3c2)-c4ccnc(N)n4], for which the IC50 is less than 5 µM.

For `COc1cc(CN(C)C(=O)c2ccc3sc(-c4ccnc(N)n4)c(C)c3c2)cc(OC)c1OC` [Example 555, COc1cc(CN(C)C(═O)c2ccc3sc(c(C)c3c2)-c4ccnc(N)n4)cc(OC)c1OC], the IC50 is greater than 5 µM.

Consider `Cc1c(-c2ccnc(N)n2)sc2ccc(C(=O)NCCCO)cc12` [Example 343, Cc1c(sc2ccc(cc12)C(═O)NCCCO)-c3ccnc(N)n3], for which the IC50 was less than 5 µM.
